From ChEMBL document CHEMBL3352588, “Targeting the homologous recombination pathway by small molecule modulators” (Bioorg Med Chem Lett, 2014) come the findings set out here.

Each structure is given as a SMILES string.

Broadly, the IC50 is the concentration that inhibits the measured activity by half. Higher therefore signals weaker potency in that assay. What is called EC50 is the concentration giving half of the maximal effect.

In assay [1] the target is Bifunctional 3'-5' exonuclease/ATP-dependent helicase WRN (Homo sapiens, UniProt Q14191). Description: Inhibition of WRN helicase (unknown origin).
Sequence of Bifunctional 3'-5' exonuclease/ATP-dependent helicase WRN (Q14191 whole entry): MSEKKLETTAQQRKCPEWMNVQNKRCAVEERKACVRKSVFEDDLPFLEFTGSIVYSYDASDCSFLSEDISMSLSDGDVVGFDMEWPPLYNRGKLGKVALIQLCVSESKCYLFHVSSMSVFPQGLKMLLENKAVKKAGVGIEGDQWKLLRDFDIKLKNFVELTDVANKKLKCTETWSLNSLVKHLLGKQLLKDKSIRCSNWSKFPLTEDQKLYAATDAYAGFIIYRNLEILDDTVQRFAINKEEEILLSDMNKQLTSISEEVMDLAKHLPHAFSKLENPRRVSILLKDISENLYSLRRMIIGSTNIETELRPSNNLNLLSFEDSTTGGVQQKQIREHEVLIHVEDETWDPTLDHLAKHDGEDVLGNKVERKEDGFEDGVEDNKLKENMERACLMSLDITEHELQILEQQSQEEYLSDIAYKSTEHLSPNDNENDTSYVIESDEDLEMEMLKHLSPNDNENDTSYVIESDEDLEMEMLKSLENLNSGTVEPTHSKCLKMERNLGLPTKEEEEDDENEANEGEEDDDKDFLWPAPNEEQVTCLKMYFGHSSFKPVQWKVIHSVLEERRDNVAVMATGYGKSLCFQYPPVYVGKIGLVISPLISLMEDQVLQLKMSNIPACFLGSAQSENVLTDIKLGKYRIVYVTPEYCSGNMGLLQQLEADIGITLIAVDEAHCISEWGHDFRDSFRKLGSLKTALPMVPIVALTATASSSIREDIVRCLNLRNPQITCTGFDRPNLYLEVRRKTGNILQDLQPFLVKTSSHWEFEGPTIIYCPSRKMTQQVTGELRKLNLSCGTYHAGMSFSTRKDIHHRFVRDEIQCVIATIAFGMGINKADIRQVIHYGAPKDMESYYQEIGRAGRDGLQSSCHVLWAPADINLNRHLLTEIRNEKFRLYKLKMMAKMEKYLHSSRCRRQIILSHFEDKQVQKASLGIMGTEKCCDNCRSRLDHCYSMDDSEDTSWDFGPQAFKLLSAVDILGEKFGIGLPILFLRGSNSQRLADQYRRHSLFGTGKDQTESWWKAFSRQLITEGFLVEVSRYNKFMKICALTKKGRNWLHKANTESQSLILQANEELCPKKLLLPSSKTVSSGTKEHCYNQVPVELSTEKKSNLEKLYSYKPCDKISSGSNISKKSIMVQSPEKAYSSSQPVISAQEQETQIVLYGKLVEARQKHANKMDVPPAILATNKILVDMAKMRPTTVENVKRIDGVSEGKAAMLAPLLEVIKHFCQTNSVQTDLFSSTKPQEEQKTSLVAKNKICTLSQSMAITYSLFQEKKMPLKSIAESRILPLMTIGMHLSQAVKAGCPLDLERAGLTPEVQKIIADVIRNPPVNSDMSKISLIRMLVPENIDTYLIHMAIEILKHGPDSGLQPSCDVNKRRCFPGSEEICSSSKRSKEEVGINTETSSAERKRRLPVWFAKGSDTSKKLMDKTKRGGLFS
The target of assay [2] is T1, DNA repair protein RAD51 homolog 1 (Homo sapiens) (UniProt Q06609).
T1 sequence (whole entry): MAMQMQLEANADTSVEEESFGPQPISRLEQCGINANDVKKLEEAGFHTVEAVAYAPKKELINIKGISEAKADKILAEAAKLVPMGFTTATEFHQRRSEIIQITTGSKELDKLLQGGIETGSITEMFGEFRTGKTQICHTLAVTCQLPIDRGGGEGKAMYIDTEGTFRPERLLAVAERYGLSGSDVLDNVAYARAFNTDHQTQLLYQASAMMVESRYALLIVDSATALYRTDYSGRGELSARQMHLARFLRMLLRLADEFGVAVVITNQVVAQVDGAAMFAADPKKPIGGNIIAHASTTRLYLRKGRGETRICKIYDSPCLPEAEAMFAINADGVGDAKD
Description: Inhibition of RAD51 in human MCF7 cells assessed as reduction in IR-induced RAD51 foci formation at 20 uM. In kind it is cell-based.

Assay [3] addresses T1, DNA repair protein RAD51 homolog 1 (Homo sapiens). Description: Inhibition of RAD51 in human HeLa cells expressing DR-GFP construct assessed as reduction in […]-induced homologous recombination at 20 uM. In kind it is cell-based.
Assay [4] shares this target. Description: Induction of RAD51 in cisplatin-treated neonatal human skin fibroblast assessed as increase in survival at 7.5 uM relative to untreated control.
For assay [5], the target named is DNA repair protein RAD51 homolog 1 (Homo sapiens) (UniProt Q06609). Description: Inhibition of RAD51 (unknown origin) binding to ssDNA.
The target of assay [6] is T2, DNA repair and recombination protein RAD54-like (Homo sapiens, UniProt Q92698).
T2 sequence (Q92698 whole entry): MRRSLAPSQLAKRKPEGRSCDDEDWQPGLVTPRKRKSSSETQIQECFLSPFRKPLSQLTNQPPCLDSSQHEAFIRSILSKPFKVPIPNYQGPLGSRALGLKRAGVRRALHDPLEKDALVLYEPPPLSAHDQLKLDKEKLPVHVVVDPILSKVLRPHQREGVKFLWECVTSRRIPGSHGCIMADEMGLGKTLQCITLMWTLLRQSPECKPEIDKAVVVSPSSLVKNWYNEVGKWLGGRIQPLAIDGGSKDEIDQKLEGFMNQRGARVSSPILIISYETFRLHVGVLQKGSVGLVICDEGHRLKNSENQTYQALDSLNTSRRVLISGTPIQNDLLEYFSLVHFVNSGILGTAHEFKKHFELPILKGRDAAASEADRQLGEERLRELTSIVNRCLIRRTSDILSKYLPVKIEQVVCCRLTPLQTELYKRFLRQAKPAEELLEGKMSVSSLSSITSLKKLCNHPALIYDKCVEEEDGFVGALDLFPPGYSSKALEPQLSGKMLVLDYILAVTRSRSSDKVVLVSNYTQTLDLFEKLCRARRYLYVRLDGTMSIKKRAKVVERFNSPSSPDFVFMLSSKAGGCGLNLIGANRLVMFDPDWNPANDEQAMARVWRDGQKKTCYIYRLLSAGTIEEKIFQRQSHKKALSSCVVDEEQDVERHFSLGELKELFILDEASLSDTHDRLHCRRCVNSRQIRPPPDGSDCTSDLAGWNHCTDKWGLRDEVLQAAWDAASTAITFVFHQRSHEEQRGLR
Description: Inhibition of RAD54 (unknown origin) ATPase activity assessed as generation of reactive oxygen species.

In the case of `CCC(=O)OCN1C(=O)C=CC1=O`, it took 20 µM to reach half-maximal inhibition in assay [1] (IC50).

Take `O=C(Nc1ccc(F)c(C(F)(F)F)c1)Nc1nnc(-c2ccncc2)s1`: in assay [1], the IC50 was determined as 5 µM.

Turning to `O=S(=O)(Cc1ccccc1)N1C=Cc2ccccc2C1c1c[nH]c2ccccc12` (configuration not stated), the values for the fold change (FC) in assay [2] and in assay [3] were 2 and 10, respectively.

On to `O=C(Nc1ccc(Br)cc1)c1ccc(Br)c(S(=O)(=O)NCc2ccccc2)c1`, for which, in assay [4], the fold change (FC) came out at 1.5.

Compound `COc1ccc(C2=C(N3CCOCC3)C(=O)N(c3ccc(Cl)c(Cl)c3)C2=O)cc1` had an EC50 in assay [5] of 44 µM.

On to `COC1=C(N)C(=O)c2nc(-c3nc(C(=O)O)c(C)c(-c4ccc(OC)c(OC)c4O)c3N)ccc2C1=O` [STREPTONIGRIN], for which the EC50 in assay [6] was determined as 16.5 µM.
